Where “and” joins values, the source holds several entries; their conditions need not be identical. Equal entries are not always repeated.

For the first test, the target named is T1, Corticotropin-releasing factor receptor 2 (Homo sapiens, UniProt Q13324).
T1 sequence (Q13324 whole entry): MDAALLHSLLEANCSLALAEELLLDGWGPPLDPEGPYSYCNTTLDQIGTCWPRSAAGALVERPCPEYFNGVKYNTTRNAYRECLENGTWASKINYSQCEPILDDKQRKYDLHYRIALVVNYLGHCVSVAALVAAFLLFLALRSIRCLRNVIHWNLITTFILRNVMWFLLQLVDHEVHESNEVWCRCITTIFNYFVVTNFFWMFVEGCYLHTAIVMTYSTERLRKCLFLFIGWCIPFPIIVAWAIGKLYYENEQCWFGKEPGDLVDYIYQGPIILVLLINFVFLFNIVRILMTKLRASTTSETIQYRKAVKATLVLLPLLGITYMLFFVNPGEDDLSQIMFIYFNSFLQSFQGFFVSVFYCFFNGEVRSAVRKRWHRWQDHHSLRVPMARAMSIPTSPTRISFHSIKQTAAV
Briefly: (§1) Homogeneous Time-Resolved Fluorescence Assay: Chinese hamster ovary (CHO) cells expressing either the human or rat recombinant CRF-1 or human CRF-2alpha (Chen et al, Proc Natl Acad Sci USA 90, 8967-8971, 1993; Liaw et al, Endocrinology 137, 72-77, 1996) are propagated in Dulbecco's modified Eagle medium supplemented with 10% foetal calf serum, non-essential amino acids, 100 U/ml penicillin, 100 mg/l streptomycin and 1 g/l geneticin. CHO cells expressing the rat CRF-2beta receptor (Wu et al, Endocrinology 148, 1675-1687, 2007) are propagated in HAM's-F12 Glutamax supplemented with 10% foetal calf serum, 100 IU/ml penicillin, 100 mg/l streptomycin, 600 ug/ml hygromycin, 10 ug/ml blasticidin and induced with 1 ug/ml of tetracyclin for 24 hours prior to experimentation. For cyclic AMP determinations the Homogeneous Time-Resolved Fluoresce (HTRF) CAMP dynamic 2 kit (Cisbio International, France) was used as per manufacturers' instructions. It counts as cell-based. For orientation: TR-FRET usually uses a lanthanide donor and a delayed reading to cut background.
On to `Cc1ncc(Cl)cc1C(=O)N[C@H]1CC[C@@H](Cn2nc(-c3ccc(F)cc3)cc2C)CC1`, for which the IC50 was found to be 4630 nM.

Take `CCc1cc(C)n(C[C@H]2CC[C@H](NC(=O)c3cc(C(F)(F)F)ccc3Cl)CC2)n1`: the concentration for half-maximal inhibition (IC50) came to 2030 nM.

For the compound `Cc1ncc(Cl)cc1C(=O)N[C@H]1CC[C@@H](Cn2nc(-c3ccccc3)cc2C)CC1`, the concentration for half-maximal inhibition (IC50) is 4940 nM.

Consider `O=C(N[C@H]1CC[C@H](Cn2cc(Cl)c(CO)n2)CC1)c1cc(C(F)(F)F)ccc1Cl`, for which the IC50 was 4850 nM.

As for `Cc1ncc(Cl)cc1C(=O)N[C@H]1CC[C@H](Cn2nc(-c3cccnc3)cc2C)CC1`, the IC50 stood at 3740 nM.

Turning to `CCc1[nH]nc(NC[C@H]2CC[C@H](NC(=O)c3cc(Cl)cnc3C)CC2)c1C`, the concentration for half-maximal inhibition (IC50) was 4880 nM.

The target of a further test is T2, Corticotropin-releasing factor receptor 1 (Homo sapiens, UniProt P34998).
T2 sequence (P34998 whole entry): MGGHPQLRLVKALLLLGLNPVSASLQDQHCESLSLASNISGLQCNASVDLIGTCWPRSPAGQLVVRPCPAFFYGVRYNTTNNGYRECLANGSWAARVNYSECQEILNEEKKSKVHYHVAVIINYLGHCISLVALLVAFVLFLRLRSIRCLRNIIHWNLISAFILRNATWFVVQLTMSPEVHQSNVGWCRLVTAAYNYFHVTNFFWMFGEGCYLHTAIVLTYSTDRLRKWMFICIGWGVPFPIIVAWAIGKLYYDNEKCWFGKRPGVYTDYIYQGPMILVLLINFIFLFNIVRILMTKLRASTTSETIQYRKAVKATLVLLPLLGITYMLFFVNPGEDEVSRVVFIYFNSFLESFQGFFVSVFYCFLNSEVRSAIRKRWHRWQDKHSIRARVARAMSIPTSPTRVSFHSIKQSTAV
The description is as §1. The class given is cell-based.
Take `Cc1ncc(Cl)cc1C(=O)N[C@H]1CC[C@@H](Cn2nc(-c3ccc(F)cc3)cc2C)CC1`: the half-inhibitory concentration (IC50) was found to be 180 nM.

Consider `Cc1ncc(Cl)cc1C(=O)N[C@H]1CC[C@H](Cn2nc(CO)cc2C)CC1`, for which the IC50 is 665 nM.

In the case of `CCc1cc(C)nn1C[C@H]1CC[C@H](NC(=O)c2cc(C(F)(F)F)ccc2Cl)CC1`, the IC50 came out at 22 nM.

As for `Cc1cnn(C[C@H]2CC[C@H](NC(=O)c3cc(C(F)(F)F)ccc3Cl)CC2)c1`, the IC50 turned out to be 132 nM.

As to `Cc1cc(CO)n(C[C@H]2CC[C@H](NC(=O)c3cc(Cl)cnc3C)CC2)n1`, the IC50 amounted to 6960 nM.

For `O=C(N[C@H]1CC[C@H](Cn2ncc3c2CCC3)CC1)c1cc(C(F)(F)F)ccc1Cl`, the IC50 stood at 170 nM.

Turning to `Cc1cc(C)n(C[C@H]2CC[C@H](NC(=O)c3cc(C(F)(F)F)cnc3C)CC2)n1`, the half-inhibitory concentration (IC50) came out at 634 nM.

Take `O=C(N[C@H]1CC[C@H](Cn2cc(Cl)c(CO)n2)CC1)c1cc(C(F)(F)F)ccc1Cl`: the concentration for half-maximal inhibition (IC50) came out at 95 nM.

With `Cc1cc(C)n(C[C@H]2CC[C@H](NC(=O)c3cc(Cl)cnc3C)CC2)n1`, the half-inhibitory concentration (IC50) was 88 nM and 262 nM.

Consider `COc1ccc(-c2c(NC[C@H]3CC[C@H](NC(=O)c4cc(C(F)(F)F)ccc4Cl)CC3)n[nH]c2C)c(Cl)c1`, for which the IC50 turned out to be 35 nM.

For `Cc1cc(-c2ccc3c(c2)OCO3)nn1C[C@H]1CC[C@H](NC(=O)c2cc(C(F)(F)F)ccc2Cl)CC1`, the half-maximal inhibitory concentration (IC50) came to 59 nM.

Take `CCc1cc(CC)n(C[C@H]2CC[C@H](NC(=O)c3cc(C(F)(F)F)ccc3Cl)CC2)n1`: the IC50 came out at 21 nM.

Regarding `Cc1ncc(Cl)cc1C(=O)N[C@H]1CC[C@H](Cn2nc(-c3cccnc3)cc2C)CC1`, the IC50 is 142 nM.

For `CCc1cc(CC)n(C[C@H]2CC[C@H](NC(=O)c3cc(Cl)cnc3C)CC2)n1`, the IC50 was 160 nM.

As to `CCc1[nH]nc(NC[C@H]2CC[C@H](NC(=O)c3cc(Cl)cnc3C)CC2)c1C`, the IC50 came to 134 nM.

As for `Cc1ncc(Cl)cc1C(=O)N[C@H]1CC[C@H](Cn2nc(C)c(Cl)c2C)CC1`, the IC50 stood at 256 nM.

For `Cc1ncc(Cl)cc1C(=O)N[C@H]1CC[C@H](Cn2cc3c(n2)CCCC3)CC1`, the half-maximal inhibitory concentration (IC50) came to 318 nM.

Consider `COc1ccc(-c2cc(C)n(C[C@H]3CC[C@H](NC(=O)c4cc(C(F)(F)F)ccc4Cl)CC3)n2)cc1`, for which the half-inhibitory concentration (IC50) was determined as 82 nM.

As for `Cc1cn(C[C@H]2CC[C@H](NC(=O)c3cc(C(F)(F)F)ccc3Cl)CC2)nc1C`, the IC50 was determined as 167 nM.

For `COc1cc(C)nn1C[C@H]1CC[C@H](NC(=O)c2cc(C(F)(F)F)ccc2Cl)CC1`, the IC50 came out at 67 nM.

Broadly, the IC50 is the concentration that inhibits the measured activity by half.
